Measurements taken from patent US9708314B2, “Heterocyclic amide compound” (NISSAN CHEMICAL INDUSTRIES, LTD., priority 2013, dated 2017).

What was measured:
Type in all cases: in vivo
Triticum aestivum = experiment: Test Example 4: effect on crop by application to foliage (diluvial soil, plastic box); settings: foliage application, 320 g/ha
Summary of the method: (§1)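 Scores run from 0 (herbicidal ratio ≤5%) to 5 (≥90%, almost fully withered) and were assessed three weeks after foliar spraying. Seedlings had been raised for 14 days at 25-30° C in sterilized diluvial soil before treatment, with the emulsion diluted in water to the stated g/ha dose.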

Glycine max = experiment: as above; settings: foliage application, 320 g/ha
Summary of the method: as §1

Brassica campestris L. = experiment: as above; settings: foliage application, 320 g/ha
Summary of the method: as §1

[1] = test system: Beta vulgaris ssp. vulgaris; experiment: as above; settings: foliage application, 320 g/ha
Summary of the method: as §1

[2] = test system: directly sowed Oryza sativa; experiment: as above; settings: foliage application, 320 g/ha
Summary of the method: as §1

Zea mays = experiment: as above; settings: foliage application, 320 g/ha
Summary of the method: as §1

Scirpus juncoides = experiment: Test Example 2: herbicidal activity, application during weed generation in submerged conditions; settings: Eighteenth Table; application herbicide amount 320 g/ha
Summary of the method: (§2)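 Alluvial soil in Wagner pots flooded to 4 cm water depth; seeds sown mixed, grown in greenhouse at 25–30 °C. At one- to two-leaf stage, emulsion diluted with water to the set rate (g/ha) was applied to the water surface. Effect scored 0–5 by herbicidal ratio three weeks later.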

[3] = test system: Echinochloa oryzacola Vasing.; experiment: as above; settings: Eighteenth Table; application herbicide amount 320 g/ha
Summary of the method: as §2

Monochoria vaginalis = experiment: as above; settings: Eighteenth Table; application herbicide amount 320 g/ha
Summary of the method: as §2

Compound	e (Triticum aestivum) effect on crop grade (Triticum aestivum)	c (Glycine max) effect on crop grade (Glycine max)	g (Brassica campestris L.) effect on crop grade (Brassica campestris L.)	f (Beta vulgaris ssp. vulgaris) effect on crop grade [1]	d (directly sowed Oryza sativa) effect on crop grade [2]	b (Zea mays) effect on crop grade (Zea mays)	B (Scirpus juncoides) herbicidal ratio grade (Scirpus juncoides)	A (Echinochloa oryzicola Vasing.) herbicidal ratio grade [3]	C (Monochoria vaginalis) herbicidal ratio grade (Monochoria vaginalis)
CC(C)c1nnc2c(C(=O)Nc3nnnn3C)ccc(C(F)F)n12 [2-047]	3 (Herbicidal ratio of 40% or more and less than 70%)	0 (Herbicidal ratio of 5% or less (almost no effect))	3 (Herbicidal ratio of 40% or more and less than 70%)	5 (Herbicidal ratio of 90% or more (almost completely withered))	3 (Herbicidal ratio of 40% or more and less than 70%)	3 (Herbicidal ratio of 40% or more and less than 70%)	5 (Herbicidal ratio of 90% or more (almost completely withered))	3 (Herbicidal ratio of 40% or more and less than 70%)	4 (Herbicidal ratio of 70% or more and less than 90%)
CSCCn1nnnc1NC(=O)c1ccc(C(F)(F)F)n2c(C(C)C)nnc12 [2-048]	4 (Herbicidal ratio of 70% or more and less than 90%)	4 (Herbicidal ratio of 70% or more and less than 90%)	5 (Herbicidal ratio of 90% or more (almost completely withered))	5 (Herbicidal ratio of 90% or more (almost completely withered))	5 (Herbicidal ratio of 90% or more (almost completely withered))	4 (Herbicidal ratio of 70% or more and less than 90%)	4 (Herbicidal ratio of 70% or more and less than 90%)	3 (Herbicidal ratio of 40% or more and less than 70%)	3 (Herbicidal ratio of 40% or more and less than 70%)
CC(C)c1nnc2c(C(=O)Nc3nnnn3C)ccc(C(F)(F)C(F)(F)F)n12 [2-049]	0 (Herbicidal ratio of 5% or less (almost no effect))	1 (Herbicidal ratio of 5% or more and less than 20%)	3 (Herbicidal ratio of 40% or more and less than 70%)	4 (Herbicidal ratio of 70% or more and less than 90%)	4 (Herbicidal ratio of 70% or more and less than 90%)	2 (Herbicidal ratio of 20% or more and less than 40%)	5 (Herbicidal ratio of 90% or more (almost completely withered))	5 (Herbicidal ratio of 90% or more (almost completely withered))	4 (Herbicidal ratio of 70% or more and less than 90%)
CN(C)c1nnc2c(C(=O)Nc3nnnn3C)ccc(C(F)(F)F)n12 [2-051]	4 (Herbicidal ratio of 70% or more and less than 90%)	2 (Herbicidal ratio of 20% or more and less than 40%)	4 (Herbicidal ratio of 70% or more and less than 90%)	5 (Herbicidal ratio of 90% or more (almost completely withered))	4 (Herbicidal ratio of 70% or more and less than 90%)	4 (Herbicidal ratio of 70% or more and less than 90%)	5 (Herbicidal ratio of 90% or more (almost completely withered))	5 (Herbicidal ratio of 90% or more (almost completely withered))	5 (Herbicidal ratio of 90% or more (almost completely withered))
CSC(C)c1nnc2c(C(=O)Nc3nnnn3C)ccc(C(F)(F)F)n12 (stereo not drawn) [2-052]	5 (Herbicidal ratio of 90% or more (almost completely withered))	4 (Herbicidal ratio of 70% or more and less than 90%)	5 (Herbicidal ratio of 90% or more (almost completely withered))	5 (Herbicidal ratio of 90% or more (almost completely withered))	5 (Herbicidal ratio of 90% or more (almost completely withered))	5 (Herbicidal ratio of 90% or more (almost completely withered))	4 (Herbicidal ratio of 70% or more and less than 90%)	5 (Herbicidal ratio of 90% or more (almost completely withered))	4 (Herbicidal ratio of 70% or more and less than 90%)
CC(c1nnc2c(C(=O)Nc3nnnn3C)ccc(C(F)(F)F)n12)[S+](C)[O-] (stereo not drawn) [2-053]	5 (Herbicidal ratio of 90% or more (almost completely withered))	4 (Herbicidal ratio of 70% or more and less than 90%)	5 (Herbicidal ratio of 90% or more (almost completely withered))	5 (Herbicidal ratio of 90% or more (almost completely withered))	5 (Herbicidal ratio of 90% or more (almost completely withered))	5 (Herbicidal ratio of 90% or more (almost completely withered))	4 (Herbicidal ratio of 70% or more and less than 90%)	5 (Herbicidal ratio of 90% or more (almost completely withered))	4 (Herbicidal ratio of 70% or more and less than 90%)
CC(c1nnc2c(C(=O)Nc3nnnn3C)ccc(C(F)(F)F)n12)S(C)(=O)=O (stereo not drawn) [2-054]	5 (Herbicidal ratio of 90% or more (almost completely withered))	5 (Herbicidal ratio of 90% or more (almost completely withered))	5 (Herbicidal ratio of 90% or more (almost completely withered))	5 (Herbicidal ratio of 90% or more (almost completely withered))	5 (Herbicidal ratio of 90% or more (almost completely withered))	5 (Herbicidal ratio of 90% or more (almost completely withered))	4 (Herbicidal ratio of 70% or more and less than 90%)	5 (Herbicidal ratio of 90% or more (almost completely withered))	5 (Herbicidal ratio of 90% or more (almost completely withered))
Cn1nnnc1NC(=O)c1ccc(C(F)(F)F)n2c(Nc3ccccc3)nnc12 [2-056]	1 (Herbicidal ratio of 5% or more and less than 20%)	1 (Herbicidal ratio of 5% or more and less than 20%)	3 (Herbicidal ratio of 40% or more and less than 70%)	5 (Herbicidal ratio of 90% or more (almost completely withered))	3 (Herbicidal ratio of 40% or more and less than 70%)	0 (Herbicidal ratio of 5% or less (almost no effect))	3 (Herbicidal ratio of 40% or more and less than 70%)	3 (Herbicidal ratio of 40% or more and less than 70%)	3 (Herbicidal ratio of 40% or more and less than 70%)
CSCCc1nnc2c(C(=O)Nc3nnnn3C)ccc(C(F)(F)F)n12 [2-057]	4 (Herbicidal ratio of 70% or more and less than 90%)	2 (Herbicidal ratio of 20% or more and less than 40%)	5 (Herbicidal ratio of 90% or more (almost completely withered))	5 (Herbicidal ratio of 90% or more (almost completely withered))	5 (Herbicidal ratio of 90% or more (almost completely withered))	4 (Herbicidal ratio of 70% or more and less than 90%)	4 (Herbicidal ratio of 70% or more and less than 90%)	4 (Herbicidal ratio of 70% or more and less than 90%)	4 (Herbicidal ratio of 70% or more and less than 90%)
Cn1nnnc1NC(=O)c1ccc(C(F)(F)F)n2c(CC[S+](C)[O-])nnc12 (stereo not drawn) [2-058]	5 (Herbicidal ratio of 90% or more (almost completely withered))	3 (Herbicidal ratio of 40% or more and less than 70%)	5 (Herbicidal ratio of 90% or more (almost completely withered))	5 (Herbicidal ratio of 90% or more (almost completely withered))	5 (Herbicidal ratio of 90% or more (almost completely withered))	5 (Herbicidal ratio of 90% or more (almost completely withered))	4 (Herbicidal ratio of 70% or more and less than 90%)	4 (Herbicidal ratio of 70% or more and less than 90%)	4 (Herbicidal ratio of 70% or more and less than 90%)
